Publication PMC2248166, “Quantitative peptide binding motifs for 19 human and mouse MHC class I molecules derived using positional scanning combinatorial peptide libraries” (Immunome Research, 2008)
Where a SMILES comes first, the peptide text is derived from it.

These molecules were tested against HLA B*1503 (Homo sapiens, UniProt P01889, A329T/A93T/A95T/C349S/D201E/D98Y/E187L/E204Q/K202T/N87E/Q94N/R155S/R180L/S121R/S35A/V306I/V36M/Y140S/Y91S) (assay: biochemical).
Assay type: binding

Row | Structure (SMILES) | IC50 [nM]
1 | CC(C)[C@H](N)C(=O)N[C@@H](CCC(=O)O)C(=O)N[C@H](C(=O)N[C@@H](CCC(=O)O)C(=O)N1CCC[C@H]1C(=O)NCC(=O)N[C@@H](CO)C(=O)N[C@@H](CO)C(=O)N[C@@H](Cc1ccccc1)C(=O)O)C(C)C [3102.1119] (H-VEVEPGSSF-OH) | 1.7
2 | CC(C)C[C@H](NC(=O)[C@H](CC(C)C)NC(=O)[C@H](CCCNC(=N)N)NC(=O)[C@H](CCCNC(=N)N)NC(=O)[C@@H](NC(=O)[C@H](Cc1c[nH]cn1)NC(=O)[C@@H](N)Cc1ccccc1)C(C)C)C(=O)N[C@@H](CCCCN)C(=O)N[C@@H](Cc1ccccc1)C(=O)O [3102.1241] (H-FHVRRLLKF-OH) | 21
3 | CC(C)C[C@H](NC(=O)[C@@H](N)Cc1ccccc1)C(=O)N[C@@H](CO)C(=O)N[C@@H](CCC(=O)O)C(=O)N1CCC[C@H]1C(=O)N[C@@H](Cc1ccc(O)cc1)C(=O)N[C@@H](CO)C(=O)N[C@@H](Cc1ccc(O)cc1)C(=O)N[C@@H](Cc1ccccc1)C(=O)O [3102.1270] (H-FLSEPYSYF-OH) | 29
4 | CC[C@H](C)[C@H](N)C(=O)N[C@@H](CCSC)C(=O)N[C@H](C(=O)N[C@@H](CO)C(=O)N[C@@H](CCC(=O)O)C(=O)N[C@@H](Cc1c[nH]cn1)C(=O)N[C@@H](Cc1ccccc1)C(=O)N[C@@H](CO)C(=O)N[C@@H](CC(C)C)C(=O)O)C(C)C [3102.1318] (H-IMVSEHFSL-OH) | 5.5
5 | CC(C)C[C@H](NC(=O)[C@H](CC(N)=O)NC(=O)[C@H](C)NC(=O)[C@H](CO)NC(=O)[C@H](CC(C)C)NC(=O)[C@H](CCCNC(=N)N)NC(=O)[C@H](CC(C)C)NC(=O)[C@@H](N)Cc1ccccc1)C(=O)N[C@@H](Cc1ccccc1)C(=O)O [3102.1266] (H-FLRLSANLF-OH) | 0.12
6 | CC[C@H](C)[C@H](N)C(=O)N[C@@H](CCC(N)=O)C(=O)N[C@@H](Cc1ccc(O)cc1)C(=O)N[C@@H](CC(=O)O)C(=O)N[C@@H](CCCNC(=N)N)C(=O)N[C@@H](CCCNC(=N)N)C(=O)N[C@@H](CO)C(=O)N[C@@H](Cc1ccccc1)C(=O)N[C@@H](Cc1ccccc1)C(=O)O [3102.1327] (H-IQYDRRSFF-OH) | 0.15
7 | CC[C@H](C)[C@H](NC(=O)[C@@H](NC(=O)[C@@H](NC(=O)[C@H](C)NC(=O)[C@H](CCSC)NC(=O)[C@H](Cc1ccc(O)cc1)NC(=O)[C@H](C)NC(=O)[C@@H](N)CCCNC(=N)N)[C@@H](C)O)[C@@H](C)O)C(=O)N[C@@H](CC(C)C)C(=O)O [3102.1091] (H-RAYMATTIL-OH) | 18
8 | CC(C)[C@H](NC(=O)[C@@H](NC(=O)[C@H](C)NC(=O)[C@H](Cc1ccc(O)cc1)NC(=O)[C@@H](NC(=O)[C@H](C)NC(=O)[C@@H](N)CO)[C@@H](C)O)[C@@H](C)O)C(=O)N1CCC[C@H]1C(=O)N[C@@H](Cc1ccccc1)C(=O)O [3102.1306] (H-SATYATVPF-OH) | 12
9 | CC[C@H](C)[C@H](NC(=O)[C@H](CC(N)=O)NC(=O)[C@@H](NC(=O)[C@H](C)NC(=O)[C@H](CS)NC(=O)[C@H](CCCNC(=N)N)NC(=O)[C@@H](NC(=O)[C@@H](N)CO)[C@@H](C)CC)[C@@H](C)O)C(=O)N[C@@H](Cc1ccccc1)C(=O)O [3102.1321] (H-SIRCATNIF-OH) | 20
10 | CC[C@H](C)[C@H](NC(=O)[C@H](CC(C)C)NC(=O)[C@H](CCC(=O)O)NC(=O)[C@@H](NC(=O)[C@@H](NC(=O)[C@H](CCC(N)=O)NC(=O)[C@@H](N)CO)[C@@H](C)O)[C@@H](C)CC)C(=O)N[C@@H](C)C(=O)N[C@@H](Cc1ccccc1)C(=O)O [3102.1343] (H-SQTIELIAF-OH) | 0.21
11 | CC(C)C[C@H](NC(=O)[C@H](CO)NC(=O)[C@@H]1CCCN1C(=O)[C@H](CO)NC(=O)[C@H](Cc1ccccc1)NC(=O)[C@H](CO)NC(=O)[C@@H](NC(=O)[C@H](CO)NC(=O)[C@@H](N)Cc1ccccc1)C(C)C)C(=O)O [3102.1332] (H-FSVSFSPSL-OH) | 22
12 | CC[C@H](C)[C@H](NC(=O)[C@@H](NC(=O)[C@@H]1CCCN1C(=O)[C@H](CCC(=O)O)NC(=O)[C@H](CO)NC(=O)[C@H](CO)NC(=O)[C@H](CCSC)NC(=O)[C@@H](N)Cc1ccc(O)cc1)[C@@H](C)CC)C(=O)N[C@@H](Cc1ccccc1)C(=O)O [3102.1094] (H-YMSSEPIIF-OH) | 0.3
13 | CC(C)C[C@H](NC(=O)[C@H](Cc1ccccc1)NC(=O)[C@H](CCCNC(=N)N)NC(=O)[C@@H](N)CC(C)C)C(=O)N[C@@H](CCC(=O)O)C(=O)N[C@@H](CCCCN)C(=O)N[C@H](C(=O)N[C@@H](CO)C(=O)N[C@@H](Cc1ccccc1)C(=O)O)[C@@H](C)O [3102.1139] (H-LRFLEKTSF-OH) | 2.2
14 | CC[C@H](C)[C@H](NC(=O)[C@@H](NC(=O)[C@@H](NC(=O)[C@H](CCCNC(=N)N)NC(=O)[C@H](CC(N)=O)NC(=O)[C@H](Cc1ccccc1)NC(=O)[C@H](CO)NC(=O)[C@@H](N)C(C)C)C(C)C)C(C)C)C(=O)N[C@@H](Cc1ccccc1)C(=O)O [3102.1059] (H-VSFNRVVIF-OH) | 1.1
15 | CC(C)C[C@H](NC(=O)[C@H](Cc1ccc(O)cc1)NC(=O)[C@H](CCC(N)=O)NC(=O)[C@H](CO)NC(=O)[C@H](CCCNC(=N)N)NC(=O)[C@H](CC(N)=O)NC(=O)[C@H](CCC(N)=O)NC(=O)[C@@H](N)CCCNC(=N)N)C(=O)N[C@@H](Cc1ccccc1)C(=O)O [3102.1112] (H-RQNRSQYLF-OH) | 0.14
16 | CC[C@H](C)[C@H](NC(=O)[C@H](CO)NC(=O)[C@@H](NC(=O)[C@H](Cc1ccccc1)NC(=O)CNC(=O)[C@@H](NC(=O)[C@@H](NC(=O)[C@H](CCCCN)NC(=O)[C@@H](N)CCCCN)C(C)C)[C@@H](C)CC)C(C)C)C(=O)O [3102.1208] (H-KKVIGFVSI-OH) | 7.5
17 | CSCC[C@H](NC(=O)[C@H](CC(C)C)NC(=O)[C@H](CO)NC(=O)[C@H](CC(N)=O)NC(=O)[C@H](CC(N)=O)NC(=O)[C@H](CC(C)C)NC(=O)[C@@H](N)CS)C(=O)N[C@@H](CO)C(=O)N[C@@H](Cc1ccccc1)C(=O)O [3102.1050] (H-CLNNSLMSF-OH) | 0.77
18 | CC[C@H](C)[C@H](N)C(=O)N[C@@H](CC(C)C)C(=O)N[C@@H](Cc1c[nH]cn1)C(=O)N[C@@H](CO)C(=O)N[C@@H](CC(=O)O)C(=O)N[C@@H](Cc1ccc(O)cc1)C(=O)N[C@@H](CCC(N)=O)C(=O)N[C@@H](CC(C)C)C(=O)N[C@@H](Cc1ccccc1)C(=O)O [3102.1141] (H-ILHSDYQLF-OH) | 2.4
19 | CSCC[C@H](NC(=O)[C@H](CC(N)=O)NC(=O)CNC(=O)[C@H](CS)NC(=O)CNC(=O)[C@H](Cc1ccc(O)cc1)NC(=O)[C@H](CCCCN)NC(=O)[C@@H](N)CCCNC(=N)N)C(=O)N[C@@H](Cc1ccccc1)C(=O)O [3102.1308] (H-RKYGCGNMF-OH) | 1.3
20 | CSCC[C@H](NC(=O)[C@H](CCCCN)NC(=O)[C@H](CCC(N)=O)NC(=O)[C@@H](N)CCCCN)C(=O)N[C@@H](Cc1ccccc1)C(=O)N[C@@H](CO)C(=O)N[C@@H](CC(N)=O)C(=O)N[C@@H](CC(N)=O)C(=O)N[C@H](C(=O)O)C(C)C [3102.1248] (H-KQKMFSNNV-OH) | 19
21 | C[C@@H](O)[C@H](N)C(=O)N[C@@H](CCCCN)C(=O)N[C@@H](Cc1ccccc1)C(=O)N[C@H](C(=O)N[C@@H](CC(=O)O)C(=O)N[C@@H](Cc1ccccc1)C(=O)N[C@@H](CCC(N)=O)C(=O)N[C@@H](CC(=O)O)C(=O)N[C@@H](Cc1ccccc1)C(=O)O)[C@@H](C)O [3102.1078] (H-TKFTDFQDF-OH) | 2.2
22 | CC[C@H](C)[C@H](NC(=O)[C@H](CCSC)NC(=O)[C@H](CC(C)C)NC(=O)[C@@H]1CCCN1C(=O)[C@H](CCCNC(=N)N)NC(=O)[C@H](Cc1ccccc1)NC(=O)[C@H](CCCCN)NC(=O)[C@@H](N)CCCCN)C(=O)N[C@@H](Cc1ccccc1)C(=O)O [3102.1138] (H-KKFRPLMIF-OH) | 0.17
23 | CC[C@H](C)[C@H](NC(=O)[C@H](CO)NC(=O)[C@@H](NC(=O)[C@H](CCC(N)=O)NC(=O)[C@H](CO)NC(=O)[C@H](CC(N)=O)NC(=O)[C@H](Cc1ccccc1)NC(=O)[C@H](CCCCN)NC(=O)[C@@H](N)Cc1ccccc1)C(C)C)C(=O)O [3102.1116] (H-FKFNSQVSI-OH) | 1.2
24 | CSCC[C@H](NC(=O)[C@H](C)N)C(=O)N[C@@H](CCCCN)C(=O)N[C@H](C(=O)N[C@@H](CC(=O)O)C(=O)N[C@@H](C)C(=O)N[C@@H](CC(N)=O)C(=O)N[C@@H](Cc1ccc(O)cc1)C(=O)N[C@@H](Cc1ccccc1)C(=O)O)C(C)C [3102.1268] (H-AMKVDANYF-OH) | 0.15
25 | CSCC[C@H](NC(=O)[C@H](CCCCN)NC(=O)[C@@H](N)CCCCN)C(=O)N[C@H](C(=O)N[C@@H](CS)C(=O)NCC(=O)N[C@@H](CCC(N)=O)C(=O)N1CCC[C@H]1C(=O)N[C@@H](CC(C)C)C(=O)O)[C@@H](C)O [3102.1121] (H-KKMTCGQPL-OH) | 1.5
26 | CC(C)[C@H](NC(=O)[C@H](CC(N)=O)NC(=O)[C@@H](N)CO)C(=O)N[C@H](C(=O)N[C@@H](CS)C(=O)NCC(=O)N[C@H](C(=O)N[C@H](C(=O)N[C@@H](Cc1ccccc1)C(=O)O)[C@@H](C)O)[C@@H](C)O)C(C)C [3102.1319] (H-SNVVCGTTF-OH) | 25
27 | CC(C)C[C@H](NC(=O)[C@H](CCC(=O)O)NC(=O)[C@@H](NC(=O)[C@H](CO)NC(=O)[C@H](CO)NC(=O)[C@@H](NC(=O)[C@H](CCC(N)=O)NC(=O)[C@@H](N)CO)C(C)C)[C@@H](C)O)C(=O)N[C@@H](Cc1ccccc1)C(=O)O [3102.1264] (H-SQVSSTELF-OH) | 1.8
28 | CC[C@H](C)[C@H](N)C(=O)N[C@@H](CCCCN)C(=O)N[C@H](C(=O)N[C@@H](CCSC)C(=O)N[C@@H](CCSC)C(=O)N[C@H](C(=O)N[C@@H](CC(N)=O)C(=O)N1CCC[C@H]1C(=O)N[C@@H](Cc1ccccc1)C(=O)O)[C@@H](C)CC)[C@@H](C)O [3102.1325] (H-IKTMMINPF-OH) | 0.19
29 | CC[C@H](C)[C@H](N)C(=O)N[C@@H](CCC(N)=O)C(=O)N[C@@H](Cc1c[nH]cn1)C(=O)N[C@@H](CC(N)=O)C(=O)N[C@@H](Cc1ccccc1)C(=O)N[C@H](C(=O)N[C@@H](CCC(N)=O)C(=O)N[C@H](C(=O)N[C@@H](C)C(=O)O)[C@@H](C)CC)[C@@H](C)O [3102.1181] (H-IQHNFTQIA-OH) | 0.25
30 | CC(C)C[C@H](NC(=O)[C@H](CO)NC(=O)[C@H](CC(C)C)NC(=O)CNC(=O)[C@H](CS)NC(=O)[C@H](CO)NC(=O)[C@H](Cc1ccccc1)NC(=O)[C@H](CCCCN)NC(=O)[C@@H](N)Cc1ccc(O)cc1)C(=O)O [3102.1230] (H-YKFSCGLSL-OH) | 0.13
